“And” between values parts separate entries of the source, which are not always exact repeats. Equal values may be shown once. Read-outs that look alike come from different tables or passages of the source.
Experiments:
[1] = type: physicochemical
[2] = system: glutamate-induced 45Ca2+ uptake into synaptosomes of rat brain cortex; experiment: Effect on glutamate-induced 45Ca2+ uptake into synaptosomes of rat brain cortex; type: biochemical, Wistar rats; details: for Percentage 45Ca2+ of Control (Control – 100%): 200 μM glutamate, 5 min, 37 °C

mole fraction solubility (x) ([1]; 1-octanol, 293.15 K): 1.15 x · 10^4
A, parameter of the correlation equation lnx=A-B/T ([1]; 1-octanol, 293.15–313.15 K): 6.03 ± 0.15
B, parameter of the correlation equation lnx=A-B/T ([1]; 1-octanol, 293.15–313.15 K): 4423 ± 47
mole fraction solubility (x) ([1]; 1-octanol, 298.15 K): 1.47 x · 10^4
ΔGsol0, standard molar dissolution Gibbs energy ([1]; 1-octanol, 298.15 K): 5.23 kcal/mol
ΔHsol0, standard molar dissolution enthalpy ([1]; 1-octanol, 298.15 K): 8.8 kcal/mol
ΔSsol0, standard molar dissolution entropy ([1]; 1-octanol, 298.15 K): 50.0 J/mol⋅K
mole fraction solubility (x) ([1]; 1-octanol, 303.15 K): 1.91 x · 10^4
mole fraction solubility (x) ([1]; 1-octanol, 308.15 K): 2.42 x · 10^4
mole fraction solubility (x) ([1]; 1-octanol, 313.15 K): 3.01 x · 10^4
mole fraction solubility (x) ([1]; Buffer pH 7.4, 293.15 K): 2.66 x · 10^6
A, parameter of the correlation equation lnx=A-B/T ([1]; Buffer pH 7.4, 293.15–313.15 K): 0.12 ± 0.16
B, parameter of the correlation equation lnx=A-B/T ([1]; Buffer pH 7.4, 293.15–313.15 K): 3799 ± 50
mole fraction solubility (x) ([1]; Buffer pH 7.4, 298.15 K): 3.25 x · 10^6
ΔGsol0, standard molar dissolution Gibbs energy ([1]; Buffer pH 7.4, 298.15 K): 7.34 kcal/mol
ΔHsol0, standard molar dissolution enthalpy ([1]; Buffer pH 7.4, 298.15 K): 7.55 kcal/mol
ΔSsol0, standard molar dissolution entropy ([1]; Buffer pH 7.4, 298.15 K): 2.9 J/mol⋅K
mole fraction solubility (x) ([1]; Buffer pH 7.4, 303.15 K): 4.01 x · 10^6
mole fraction solubility (x) ([1]; Buffer pH 7.4, 308.15 K): 4.95 x · 10^6
mole fraction solubility (x) ([1]; Buffer pH 7.4, 313.15 K): 6.07 x · 10^6
mole fraction solubility (x) ([1]; Hexane, 293.15 K): 5.42 x · 10^4
A, parameter of the correlation equation lnx=A-B/T ([1]; Hexane, 293.15–313.15 K): 2.45 ± 0.12
B, parameter of the correlation equation lnx=A-B/T ([1]; Hexane, 293.15–313.15 K): 2922 ± 38
mole fraction solubility (x) ([1]; Hexane, 298.15 K): 6.39 x · 10^4
ΔGsol0, standard molar dissolution Gibbs energy ([1]; Hexane, 298.15 K): 4.35 kcal/mol
ΔHsol0, standard molar dissolution enthalpy ([1]; Hexane, 298.15 K): 5.81 kcal/mol
ΔSsol0, standard molar dissolution entropy ([1]; Hexane, 298.15 K): 13.1 J/mol⋅K
mole fraction solubility (x) ([1]; Hexane, 303.15 K): 7.47 x · 10^4
mole fraction solubility (x) ([1]; Hexane, 308.15 K): 8.87 x · 10^4
mole fraction solubility (x) ([1]; Hexane, 313.15 K): 10.22 x · 10^4
Compound: CN1CCc2c(c3cc(Cl)ccc3n2CCc2n[nH]c(=S)n2C)C1 [V, 5-[2-(8-Chloro-2-methyl-1,2,3,4-tetrahydropyrido[4,3-b]indol-5-yl)ethyl]-4-methyl-2,4-dihydro[1,2,4]triazole-3-thione]
Percentage 45Ca2+ of Control (Control – 100%) ([2]; compound 0.01 μM): 103.5 ± 7.7%
Percentage 45Ca2+ of Control (Control – 100%) ([2]; compound 0.1 μM): 95.3 ± 1.0%
Percentage 45Ca2+ of Control (Control – 100%) ([2]; compound 0.5 μM): 102.2 ± 6.3%
Percentage 45Ca2+ of Control (Control – 100%) ([2]; compound 1 μM): 94.5 ± 4.7%
Percentage 45Ca2+ of Control (Control – 100%) ([2]; compound 5 μM): 80.7 ± 10.5%
Percentage 45Ca2+ of Control (Control – 100%) ([2]; compound 10 μM): 75.6 ± 10.0%
Percentage 45Ca2+ of Control (Control – 100%) ([2]; compound 50 μM): 93.3 ± 11.0%
Percentage 45Ca2+ of Control (Control – 100%) ([2]; compound 100 μM): 135.5% and 135.5 ± 9.4%
inhibition of glutamate-induced calcium ion uptake, most efficient ([2]; concentration of 5–10 μM): ~20%
overall inhibiting activity on calcium ion uptake, in words ([2]; whole concentration range 0.01–100 μM): weak inhibitors of calcium ion uptake

— paper PMC6128713 (Saudi Pharmaceutical Journal : SPJ, 2018)
